Measurements as given in patent US8153821B2, “Compounds” (priority 2008, dated 2012).
Read-outs that look alike come from different tables or passages of the source.

Legend:
rat native α7 receptors = molecular target: T1, rat native α7 receptors (Rattus norvegicus, UniProt Q05941); test: [3H]MLA binding, rat hippocampal membranes
T1 construct: rat native α7 receptors in rat hippocampal membranes; from tissue; host or cells: rat hippocampus (female Sprague-Dawley)
Experimental: Rats (female, Sprague-Dawley), weighing 150-250 g, were maintained on a 12 h light/dark cycle and were allowed free access to water and food supplied by PMI Nutrition International, Inc. Animals were anesthetized with 70% CO2, and then decapitated. Brains were removed and placed on an ice-cold platform. The hippocampus was removed and placed in 10 volumes (weight:volume) of ice-cold preparative buffer (137 mM NaCl, 10.7 mM KCl, 5.8 mM KH2PO4, 8 mM Na2HPO4, 20 mM HEPES (free acid), 5 mM iodoacetamide, 1.6 mM EDTA, pH 7.4); PMSF, dissolved in methanol to a final concentration of 100 μM, was added and the tissue suspension was homogenized by Polytron. […] Protein was determined by the method of Lowry et al., J. Biol. Chem. 193: 265 (1951), using bovine serum albumin as the standard.
The binding of [^3H]MLA was measured using a modification of the methods of Davies et al., Neuropharmacol. […] The binding of [^3H]MLA was determined using a 2 h incubation at 21° C. […] Non-specific binding was determined by inclusion of 50 μM non-radioactive MLA in selected wells.
The inhibition of [^3H]MLA binding by test compounds was determined by including seven different concentrations of the test compound in selected wells. […] Inhibition constants (Ki values), reported in nM, were calculated from the IC50 values using the method of Cheng et al., Biochem. Pharmacol. 22: 3099-3108 (1973).

[1] = test system: rats with scopolamine-induced cognitive deficits; test: Radial arm maze (RAM), scopolamine-induced deficit; type: in vivo, rat; conditions: 0.03 mg/kg or 0.1 μmol/kg p.o. 0.5 h prior to test trial, scopolamine 0.3±0.1 mg/kg s.c.
Experimental: Working memory was assessed in a radial arm maze (RAM) task. The RAM task was conducted using an automated eight-arm maze (Med Associates, Inc.) The maze was located on a circular table approximately 88 cm above the floor with overhead lighting in a dedicated testing ambient and large, high contrast geometric shapes on the wall. Furthermore, additional visual cues were located at the hub entry into each arm, above each the food hopper and on the ceiling. The central platform measured 30.5 cm in diameter with eight arms (9 cm W×45.7 cm L×16.8 cm H) radiating from it. Automatic guillotine doors were located at the entrance to each runway with a pellet receptacle at the distal end of each arm. White noise will be audible during all training and testing procedures. Activity on the maze was monitored by tracking quantitative activity (generated by infra-red beam breaks) on the computer interface and monitor screen.
Following the baseline assessment and after re-attainment test session criterion, animals were assessed for their sensitivity to chemically-induced cognitive impairment using the muscarinic antagonist scopolamine (0.2-0.4 mg/kg; s.c.). A dose of scopolamine was determined for each animal based on the minimum dose that produced significant and reliable cognitive impairment. […]

[2] = molecular target: T2, human native ganglion receptors (Homo sapiens, UniProt P30926+P32297); test: Ca flux assay, SH-SY5Y cells; type: cell-based
T2 construct: human native ganglion-type nicotinic receptors (likely α3β4); endogenous in cells; host or cells: SH-SY5Y
T2 sequence (P32297 32-505): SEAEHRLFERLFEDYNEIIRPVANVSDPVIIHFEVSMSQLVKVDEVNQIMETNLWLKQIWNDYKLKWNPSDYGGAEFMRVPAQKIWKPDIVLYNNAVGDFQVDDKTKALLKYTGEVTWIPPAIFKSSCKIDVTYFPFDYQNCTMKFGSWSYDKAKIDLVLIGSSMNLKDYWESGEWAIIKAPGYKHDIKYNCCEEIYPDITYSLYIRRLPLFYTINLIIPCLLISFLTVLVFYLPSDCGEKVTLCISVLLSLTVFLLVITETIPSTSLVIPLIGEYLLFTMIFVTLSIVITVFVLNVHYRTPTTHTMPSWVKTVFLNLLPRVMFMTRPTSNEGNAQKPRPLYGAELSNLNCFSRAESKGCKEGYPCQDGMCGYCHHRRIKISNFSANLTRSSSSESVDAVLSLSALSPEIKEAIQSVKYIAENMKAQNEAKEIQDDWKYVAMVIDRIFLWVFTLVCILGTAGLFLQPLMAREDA
T2 sequence (P30926 22-498): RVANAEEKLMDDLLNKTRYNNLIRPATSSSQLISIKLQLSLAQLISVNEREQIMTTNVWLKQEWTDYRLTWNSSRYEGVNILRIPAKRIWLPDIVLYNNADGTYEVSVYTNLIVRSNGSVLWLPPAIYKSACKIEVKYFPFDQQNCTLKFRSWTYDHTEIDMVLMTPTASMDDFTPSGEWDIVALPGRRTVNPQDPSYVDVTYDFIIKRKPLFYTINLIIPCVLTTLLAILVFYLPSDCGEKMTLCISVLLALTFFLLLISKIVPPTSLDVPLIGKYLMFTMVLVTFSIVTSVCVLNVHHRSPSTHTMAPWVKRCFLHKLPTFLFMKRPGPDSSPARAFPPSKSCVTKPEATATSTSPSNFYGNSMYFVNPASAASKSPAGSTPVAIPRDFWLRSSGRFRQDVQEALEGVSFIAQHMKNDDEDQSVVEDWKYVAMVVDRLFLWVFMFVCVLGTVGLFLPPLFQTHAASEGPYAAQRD
Experimental: The cell line SH-SY5Y is a continuous line derived by sequential subcloning of the parental cell line, SK-N-SH, which was originally obtained from a human peripheral neuroblastoma. SH-SY5Y cells express a ganglion-like nAChR (Lukas et al., Mol. Cell. Neurosci. 4: 1 (1993)).
(R)-3-((E)-2-(Pyrrolidin-3-yl)vinyl)-5-(tetrahydropyran-4-yloxy)pyridine or a salt thereof was tested in ganglion and muscle-type nicotinic receptor ion flux assays to examine functional selectivity.

CYP2C9 = CYP2C9 (Homo sapiens, UniProt P11712); type: in vitro ADME
Chain of CYP2C9 (P11712 whole entry): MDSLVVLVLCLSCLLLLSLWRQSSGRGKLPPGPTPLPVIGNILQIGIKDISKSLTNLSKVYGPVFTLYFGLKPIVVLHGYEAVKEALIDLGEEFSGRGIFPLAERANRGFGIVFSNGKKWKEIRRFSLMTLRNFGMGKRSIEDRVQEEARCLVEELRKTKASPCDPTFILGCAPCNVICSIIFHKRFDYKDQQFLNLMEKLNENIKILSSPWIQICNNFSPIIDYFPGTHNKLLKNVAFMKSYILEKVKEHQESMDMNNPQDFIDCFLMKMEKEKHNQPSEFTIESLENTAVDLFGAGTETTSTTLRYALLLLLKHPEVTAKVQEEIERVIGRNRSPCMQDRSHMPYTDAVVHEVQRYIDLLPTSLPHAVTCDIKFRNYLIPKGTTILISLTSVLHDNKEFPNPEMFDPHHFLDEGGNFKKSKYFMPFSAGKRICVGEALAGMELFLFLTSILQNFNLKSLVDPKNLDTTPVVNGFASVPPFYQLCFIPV

T1 sequence (Q05941 23-502): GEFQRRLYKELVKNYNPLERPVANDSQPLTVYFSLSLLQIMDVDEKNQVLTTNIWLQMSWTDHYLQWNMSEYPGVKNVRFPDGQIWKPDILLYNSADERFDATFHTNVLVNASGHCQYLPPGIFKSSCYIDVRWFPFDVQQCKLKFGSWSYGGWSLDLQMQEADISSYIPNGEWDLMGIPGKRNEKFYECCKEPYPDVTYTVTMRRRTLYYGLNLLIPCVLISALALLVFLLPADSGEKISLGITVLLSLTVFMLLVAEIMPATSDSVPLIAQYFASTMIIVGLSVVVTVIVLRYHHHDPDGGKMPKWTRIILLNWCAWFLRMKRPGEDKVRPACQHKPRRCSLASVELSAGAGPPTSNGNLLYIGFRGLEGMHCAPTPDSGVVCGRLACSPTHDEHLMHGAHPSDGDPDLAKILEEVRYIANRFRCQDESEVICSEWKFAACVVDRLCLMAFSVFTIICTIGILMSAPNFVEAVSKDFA

## C(=C\[C@H]1CCNC1)/c1cncc(OC2CCOCC2)c1 [Compound A, (R)-3-((E)-2-(pyrrolidin-3-yl)vinyl)-5-(tetrahydropyran-4-yloxy)pyridine]
Rat native α7 receptors
  Ki: > 10 µM
Rat native α7 receptors; read-out: Rat hippocampus (α7) Ki, [3H]methyllycaconitine (MLA), rat hippocampal membranes
  Ki: > 10 µM
[1]
  RAM effect on scopolamine-induced cognitive deficits: overcomes scopolamine induced deficits
[1]; listed as (R)-3-((E)-2-(Pyrrolidin-3-yl)vinyl)-5-(tetrahydropyran-4-yloxy)pyridine
  RAM effect on scopolamine-induced cognitive deficits: able to reverse scopolamine-induced cognitive deficits
[2]
  EC50: 11 µM
[2]; SH-SY5Y cells
  Human ganglionic (SH-SY5Y) Emax (Ca flux): μM, 13%
[2]; SH-SY5Y cells, read-out: Human ganglionic (SH-SY5Y) Emax (Ca flux)
  Emax: 13%
CYP2C9
  time-dependent inhibition of CYP2C9: no evidence of time-dependent inhibition
